Article PMC3654553, “A PPARγ ligand present in Actinidia fruit (Actinidia chrysantha) is identified as dilinolenoyl galactosyl glycerol” (Bioscience Reports, 2013)

Tests used:
[1] = target: T1, PPARγ (peroxisome-proliferator-activated receptor γ) (Homo sapiens, UniProt P37231)
T1 construct: gene PPARG
T1 sequence (P37231 231-505 limits assumed): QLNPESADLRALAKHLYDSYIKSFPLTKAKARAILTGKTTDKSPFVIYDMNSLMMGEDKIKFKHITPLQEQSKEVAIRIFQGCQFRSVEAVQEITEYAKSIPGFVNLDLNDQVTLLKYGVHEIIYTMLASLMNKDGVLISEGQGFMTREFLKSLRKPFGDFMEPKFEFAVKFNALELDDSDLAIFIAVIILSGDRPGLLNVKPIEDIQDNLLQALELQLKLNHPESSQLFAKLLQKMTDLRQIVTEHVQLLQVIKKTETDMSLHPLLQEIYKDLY

[2] = target: T1, PPARγ (peroxisome-proliferator-activated receptor γ); assay: competitive fluorescence polarization (PolarScreen PPARγ green), time course; intact protein ESI-MS shows no covalent adduct; type: binding
[3] = target: T1, PPARγ (peroxisome-proliferator-activated receptor γ); assay: competitive fluorescence polarization of HPLC fraction […], dilution series and time course; type: binding

CC/C=C\C/C=C\C/C=C\CCCCCCCC(=O)O [compound 5, α-linolenic acid]
competitive fluorescence polarization of HPLC fraction 5, dilution series [1]: α-linolenic acid and linoleic acid bind to PPARγ immediately under the assay conditions used

CC/C=C\C/C=C\C/C=C\CCCCCCCC(=O)OC[C@H](CO[C@@H]1O[C@H](CO)[C@H](O)[C@H](O)[C@H]1O)OC(=O)CCCCCCC/C=C\C/C=C\C/C=C\CC [compound 11, DLGG]
IC50 [2]: 1640 nM

CCCCC/C=C\C/C=C\CCCCCCCC(=O)O [compound 6, linoleic acid]
competitive fluorescence polarization of HPLC fraction 6, dilution series and ti [3]: α-linolenic acid and linoleic acid bind to PPARγ immediately under the assay conditions used
